Results on 13 compounds are retold here after PubChem BioAssay (NCI).

Molecules are shown by their SMILES.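 Values below derive from 48-hour exposures of cells grown in 96-well plates, with endpoints linearly interpolated between the two concentrations bracketing the appropriate inhibition level. TGI marks complete inhibition of growth.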

Some test systems named below: NCI-H23 lung; HT29 colon; OVCAR-3 ovarian; MDA-MB-435; A498 renal; SF-539 CNS; BT-549 breast; HOP-62 NSCLC; SNB-19 CNS; EKVX NSCLC.
Test in all cases: inhibition of tumour cell growth, NCI panel, 48 h

In the case of `COC(=O)/C(=C(/C)c1ccco1)P(=O)(OC)OC`, the TGI with NCI-H23 lung, with HT29 colon, in the test with OVCAR-3 ovarian, in the test with MDA-MB-435, in the test with A498 renal and in the test with SF-539 CNS was > 100 µM in each case. For the same compound, the TGI with BT-549 breast, in the test with HOP-62 NSCLC, in the test with SNB-19 CNS and in the test on EKVX NSCLC was > 100 µM throughout.
On to `CCCCOc1ccc(/C=C/C2=[N+](CCO)CCO2)cc1`, for which the TGI is > 100 µM with NCI-H23 lung; 31.4 µM in the test with HT29 colon; > 100 µM in the test with OVCAR-3 ovarian; > 100 µM with MDA-MB-435; > 100 µM with A498 renal; 96.2 µM in the test with SF-539 CNS. Besides, the TGI with BT-549 breast, in the test on HOP-62 NSCLC, in the test on SNB-19 CNS and in the test with EKVX NSCLC was > 100 µM each time.
On to `CCO/C(O)=c1/s/c(=C2/SC(=S)N(c3ccc(C)cc3)C2=O)n(-c2ccccc2)c1=N`, for which the TGI in the test on NCI-H23 lung was > 100 µM; in the test on HT29 colon, > 100 µM; with OVCAR-3 ovarian, > 100 µM; with MDA-MB-435, > 100 µM; in the test with A498 renal, > 100 µM; in the test with SF-539 CNS it was 39 µM. The TGI is > 100 µM in the test on BT-549 breast, 81.9 µM with HOP-62 NSCLC, > 100 µM in the test with SNB-19 CNS and > 100 µM in the test with EKVX NSCLC.
As to `c1ccc(CCCN2C3CCC2CN(CCOC(c2ccccc2)c2ccccc2)C3)cc1`, the TGI in the test with NCI-H23 lung was 23.6 µM; with HT29 colon, 14.8 µM; in the test with OVCAR-3 ovarian, 30.4 µM; in the test on MDA-MB-435 it was 29 µM; in the test on A498 renal, 21.8 µM; in the test with SF-539 CNS, 22.4 µM. Besides, the TGI with BT-549 breast stood at 24.9 µM; in the test on HOP-62 NSCLC, 31.4 µM; in the test on SNB-19 CNS it was 28.3 µM; with EKVX NSCLC, 19.9 µM.
Take `C[C@]12CCC(=O)C=C1CC[C@@H]1[C@@H]2CC[C@]2(C)C(=O)/C(=C/c3ccc([N+](=O)[O-])cc3)C[C@@H]12`: the TGI was > 100 µM in the test on NCI-H23 lung; > 100 µM with HT29 colon; > 100 µM in the test with OVCAR-3 ovarian; > 100 µM in the test on MDA-MB-435; 48.9 µM with A498 renal; > 100 µM with SF-539 CNS. Also, the TGI in the test on BT-549 breast, in the test with HOP-62 NSCLC, in the test with SNB-19 CNS and in the test with EKVX NSCLC was > 100 µM in each case.
Regarding `CC1=NN(c2ccccc2)C(=O)/C1=C1\SC(c2ccccc2)(c2ccccc2)c2ccccc21`, the TGI in the test on NCI-H23 lung, in the test on HT29 colon, with OVCAR-3 ovarian, with MDA-MB-435, in the test on A498 renal and in the test with SF-539 CNS was > 100 µM each time. Also, the TGI with BT-549 breast, with HOP-62 NSCLC, in the test with SNB-19 CNS and in the test with EKVX NSCLC was > 100 µM in each case.
For `COc1cc(/C=C2\CC3C4CC=C5C[C@@H](O)CC[C@]5(C)C4CC[C@]3(C)\C2=N\O)cc(OC)c1OC` (stereo not given in full), the TGI with NCI-H23 lung is 55.5 µM; in the test with HT29 colon, > 100 µM; in the test on OVCAR-3 ovarian, 61.4 µM; in the test on MDA-MB-435, > 100 µM; with A498 renal, 42.6 µM; in the test with SF-539 CNS, 34.7 µM. Further, the TGI is 37.2 µM in the test on BT-549 breast, > 100 µM with HOP-62 NSCLC, > 100 µM in the test with SNB-19 CNS and > 100 µM in the test with EKVX NSCLC.
Take `O=C(O)CSC1=NCCN1`: the TGI in the test with NCI-H23 lung, in the test on HT29 colon, with OVCAR-3 ovarian, in the test with MDA-MB-435, in the test with A498 renal and in the test with SF-539 CNS was > 100 µM throughout. In addition, the TGI with BT-549 breast, with HOP-62 NSCLC, with SNB-19 CNS and in the test with EKVX NSCLC was > 100 µM in each case.
On to `O=C(CSc1nc2ccccc2c(=O)n1-c1ccccc1)N=Nc1c(O)[nH]c2ccc(Br)cc12`, for which the TGI in the test on NCI-H23 lung turned out to be 10.8 µM; in the test with HT29 colon it was 3.7 µM; with OVCAR-3 ovarian, 20 µM; in the test with MDA-MB-435, 34 µM; in the test with A498 renal it was 40.8 µM; with SF-539 CNS, 6.13 µM. Further, the TGI with BT-549 breast is > 59.6 µM; in the test with HOP-62 NSCLC, 7.07 µM; with SNB-19 CNS, 27.2 µM; with EKVX NSCLC, 9.83 µM.
For the compound `O=S(=O)(O)c1cc(O)c(N=NC2S(=O)(=O)OCCOS2(=O)=O)c2ccccc12`, the TGI in the test on NCI-H23 lung, in the test with HT29 colon, in the test on OVCAR-3 ovarian, with MDA-MB-435, with A498 renal and in the test on SF-539 CNS was > 100 µM each time. Also, the TGI with BT-549 breast, in the test with HOP-62 NSCLC, in the test on SNB-19 CNS and in the test with EKVX NSCLC was > 100 µM each time.
Consider `Nc1nc(N)c2cc(-c3cc4ccccc4[nH]3)ccc2n1`, for which the TGI was > 100 µM with NCI-H23 lung; 38.9 µM in the test with HT29 colon; > 100 µM in the test on OVCAR-3 ovarian; 38.6 µM with MDA-MB-435; 32.7 µM in the test with A498 renal; 51.7 µM with SF-539 CNS. The TGI with BT-549 breast is 80.3 µM; in the test with HOP-62 NSCLC, > 100 µM; in the test on SNB-19 CNS, > 100 µM; in the test on EKVX NSCLC it was 95 µM.
For the compound `CCOC(=O)Cn1nnc2ccc(Nc3nc4ccccc4nc3C(=O)OCC)cc21`, the TGI with NCI-H23 lung was > 100 µM; with HT29 colon, > 100 µM; with OVCAR-3 ovarian, > 100 µM; with MDA-MB-435, > 100 µM; in the test with A498 renal, > 100 µM; with SF-539 CNS it was 91.8 µM. Besides, the TGI in the test on BT-549 breast, in the test on HOP-62 NSCLC, in the test with SNB-19 CNS and in the test with EKVX NSCLC was > 100 µM in each case.
In the case of `COc1ccc(OC)c([N+](=O)[O-])c1-c1nc2sc(Cl)cn2c1/C=N/N=C(N)N`, the TGI with NCI-H23 lung came to 60.7 µM; with HT29 colon, 34 µM; in the test with OVCAR-3 ovarian, 40.4 µM; with MDA-MB-435 it was 46.3 µM; in the test with A498 renal it was 33.7 µM; in the test on SF-539 CNS, 53.5 µM. In addition, the TGI is 38.7 µM with BT-549 breast, > 100 µM in the test on HOP-62 NSCLC, 43.4 µM in the test with SNB-19 CNS and 57 µM with EKVX NSCLC.
